# Earlier results as cited in patent US20220347313A1, “Combination Anti-CD30 ADC, Anti-PD-1 and Chemotherapeutic for Treatment of Hematopoietic Cancers” (SEAGEN, INC., priority 2019, published 2022).
# Test system: CD28, ICOS, CTLA-4 and BTLA
substance,measurement,value
nivolumab,binding specificity for PD-1 versus related CD28 family members,binds specifically to PD-1 and not to related members of the CD28 family
